Patent US20020198219A1, “2-pyridinamine compositions and related methods” (priority 2000, published 2002)
pIC50: −log10 of the molar value.

Tests used:
[1] = system: differentiated P19 neurons; experiment: Differentiated P19 excitotoxicity assay (glutamate/glycine-induced death, Alamar Blue); assay type: cell-based, murine; conditions: Mus musculus, Neuron, 3 mM glutamate + 1 mM glycine
Description: Alamar Blue fluorescence, an indicator of cell viability, was used to determine cell viability after an NMDA-induced cytotoxic insult. […] However, since raw fluorescence counts vary from experiment to experiment, FIGS. 2A, 2B, and 2C are expressed as a percent of control.
(§1) Glutamate toxicity dose response in the presence of a constant 1 mM glycine concentration was measured in the differentiated P19 neurons. The curve generated through the data points is the average of 6 separate dose response curves. Data points are represented as the percent of control cells ±standard error. % control=(([Glutamate]exp−[Glutamate]max)/(Controlvehicle−[Glutamate]max))×100.
Data points are the average ±standard error of three separate experiments.
These cells were used to measure the effects of various known kinase inhibitors (Compound Identification (ID) column in Table I) upon cytotoxicity-induced by NMDA. First, P19 cells were differentiated as described in Example 2. Then cells were exposed to 3 mM of glutamate in the presence of 1 mM glycine.
Cell viability was determined. Compounds that prevented excitotoxicity were determined by measuring the percentage of viable cells compared to differentiated P19 cells that were not presented with a toxic insult (Table I).
Cell viability was measured using two methods. The first method was a confocal, single-cell fluorescence imaging-based method using the live cell dye carboxy-fluorescein diacetate (CFDA). CFDA labels the cell bodies and processes of living cells. […] CFDA fluorescence was measured using a modified Attofluor Imager device (Atto Instruments, Rockville Pike, Md.). Cells were labeled with 1 uM CFDA for 15 min in media, then placed onto the stage of the Attofluor microscope. The dye was excited by light from a mercury lamp source passed through a 488 nm bandpass filter of 10 nm band width, passed through a CARV real-time confocal spinning disk module (Atto Instruments, Rockville, Md.), and then passed through a 40× oil immersion objective (Zeiss Fluar, NA=1.3). Emitted light was transmitted through a 495 nm dichroic mirror, collected to an Attofluor intensified CCD camera, and images were visualized using Attofluor RatioVision software (Atto Instruments, Rockville, Md.).
The second method for measuring cell viability was a plate reader method. Cells plated into black 96 well plates (Packard viewplates) are loaded with 5% Alamar Blue dye (Biosource International). Alamar Blue is a dye that takes advantage of mitochondrial reductases to convert non-fluorescent resazurin to fluorescent resorufin (excitation 535 nm, emission 580 nm). Baseline fluorescence counts were read at room temperature in a Wallac plate reader immediately after addition of Alamar blue. Fluorescence counts of cell viability were taken the same way after 1 hour incubation at 37° C. Fluorescence was expressed as a percent of control, untreated cells after subtraction of background fluorescence. Live/dead cells were confirmed visually with a light microscope. […]

P19 neurons = system: P19 neurons
Description: as §1

CDK1 = target: T1, CDK1 (Homo sapiens, UniProt P06493); experiment: Kinase assay (33P Flashplate), CDK1; assay type: biochemical; conditions: mean of at least two curves
T1 construct: host or cells: insect cells
T1 sequence (P06493 whole entry): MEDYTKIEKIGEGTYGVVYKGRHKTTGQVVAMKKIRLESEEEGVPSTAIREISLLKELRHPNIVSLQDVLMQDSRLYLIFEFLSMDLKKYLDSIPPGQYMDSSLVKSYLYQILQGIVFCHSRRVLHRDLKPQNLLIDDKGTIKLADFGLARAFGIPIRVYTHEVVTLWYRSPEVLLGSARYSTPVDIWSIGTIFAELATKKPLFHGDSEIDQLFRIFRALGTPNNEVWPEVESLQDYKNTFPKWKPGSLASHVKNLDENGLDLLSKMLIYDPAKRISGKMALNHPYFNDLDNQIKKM
T1 sequence (P14635 whole entry partner): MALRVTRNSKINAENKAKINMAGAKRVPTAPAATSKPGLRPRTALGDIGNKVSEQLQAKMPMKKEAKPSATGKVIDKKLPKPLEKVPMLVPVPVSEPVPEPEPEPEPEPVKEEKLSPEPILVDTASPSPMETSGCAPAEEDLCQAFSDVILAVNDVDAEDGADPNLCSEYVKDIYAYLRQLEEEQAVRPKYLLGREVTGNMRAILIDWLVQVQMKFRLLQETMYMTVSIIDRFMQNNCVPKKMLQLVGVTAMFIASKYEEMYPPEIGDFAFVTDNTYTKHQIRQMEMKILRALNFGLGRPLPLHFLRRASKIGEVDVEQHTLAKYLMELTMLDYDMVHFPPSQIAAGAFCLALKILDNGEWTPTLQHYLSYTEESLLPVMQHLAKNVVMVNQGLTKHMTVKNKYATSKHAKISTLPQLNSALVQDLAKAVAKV
Description: (§2) The general procedure used to assay for kinase activity was as follows: a kinase reaction mix was prepared in 50 mM Tris-HCl pH=8, 10 mM MgCl2, 0.1 mM Na3VO4, 1 mM DTT, 10 μM ATP, 0.25-1 μM biotinylated peptide substrate, 0.2-0.8 [Curies per well ^33P-γ-ATP [2000-3000 Ci/mmol]. Assay conditions varied slightly for each protein kinase, for example, insulin receptor kinase requires 10 mM MnCl2 for activity and calmodulin-dependent protein kinase requires calmodulin and 10 mM CaCl2. Reaction mix was dispensed into the wells of a streptavidin-coated Flashplate and 1 μl drug stock in 100% DMSO was added to a 100 μL reaction volume resulting in a final concentration of 1% DMSO in the reaction. Enzyme was diluted in 50 mM Tris-HCl pH=8.0, 0.1% BSA and added to each well. […] Test compounds were assayed in duplicate at 8 concentrations ranging from 100 μM to 10 μM in one order of magnitude steps. […] The IC50 was calculated from the dose response curve of the percent inhibition of the maximum signal in the assay according to the formula [max signal−background/test compound signal−background×(100)]=% inhibition by graphing the percent inhibition against the log concentration of test compound.
(§3) Casein Kinase 1 is a truncation at amino acid 318 of the C-terminal portion of the rat CK1 delta isoform produced in E. coli.

EGF-R = EGF-R (Homo sapiens, UniProt P00533); experiment: biochemical
Chain of EGF-R (P00533 25-1210): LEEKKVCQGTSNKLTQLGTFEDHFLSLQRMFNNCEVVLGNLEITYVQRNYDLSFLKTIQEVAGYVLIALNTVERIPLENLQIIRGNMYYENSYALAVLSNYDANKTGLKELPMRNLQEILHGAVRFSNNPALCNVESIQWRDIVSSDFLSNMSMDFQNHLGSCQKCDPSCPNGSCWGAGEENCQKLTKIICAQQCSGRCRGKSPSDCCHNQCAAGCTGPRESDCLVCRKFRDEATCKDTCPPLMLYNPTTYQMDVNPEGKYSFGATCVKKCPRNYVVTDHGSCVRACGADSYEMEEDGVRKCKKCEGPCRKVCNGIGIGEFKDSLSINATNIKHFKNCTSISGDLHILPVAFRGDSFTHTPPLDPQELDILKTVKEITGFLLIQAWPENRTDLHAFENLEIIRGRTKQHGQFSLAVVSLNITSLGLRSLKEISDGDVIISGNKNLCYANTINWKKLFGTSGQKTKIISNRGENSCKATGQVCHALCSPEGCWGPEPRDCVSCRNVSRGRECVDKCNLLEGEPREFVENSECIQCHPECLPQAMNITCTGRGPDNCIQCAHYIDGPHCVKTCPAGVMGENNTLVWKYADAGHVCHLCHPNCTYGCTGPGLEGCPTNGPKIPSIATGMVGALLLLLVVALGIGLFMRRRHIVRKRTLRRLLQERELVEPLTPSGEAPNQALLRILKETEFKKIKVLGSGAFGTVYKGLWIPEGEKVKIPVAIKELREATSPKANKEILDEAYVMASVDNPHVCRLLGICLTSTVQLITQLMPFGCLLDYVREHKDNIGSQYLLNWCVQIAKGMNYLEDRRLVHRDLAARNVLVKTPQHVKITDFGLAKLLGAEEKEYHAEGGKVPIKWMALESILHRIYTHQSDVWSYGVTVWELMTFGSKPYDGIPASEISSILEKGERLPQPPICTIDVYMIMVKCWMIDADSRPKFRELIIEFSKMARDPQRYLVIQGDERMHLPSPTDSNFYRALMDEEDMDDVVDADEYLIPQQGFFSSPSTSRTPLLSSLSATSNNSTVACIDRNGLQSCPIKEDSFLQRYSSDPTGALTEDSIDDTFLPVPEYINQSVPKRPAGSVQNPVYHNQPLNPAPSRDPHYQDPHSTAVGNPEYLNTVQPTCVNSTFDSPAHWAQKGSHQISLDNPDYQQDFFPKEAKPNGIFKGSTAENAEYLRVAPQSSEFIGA
Description: (§4) Assay conditions varied slightly for each protein kinase, for example, insulin receptor kinase requires 10 mM MnCl2 for activity and calmodulin-dependent protein kinase requires calmodulin and 10 mM CaCl2. Reaction mix was dispensed into the wells of a streptavidin-coated Flashplate and 1 μl drug stock in 100% DMSO was added to a 100 μL reaction volume resulting in a final concentration of 1% DMSO in the reaction. Enzyme was diluted in 50 mM Tris-HCl pH=8.0, 0.1% BSA and added to each well. The reaction was incubated for one hour at 30° C. in the presence of compound. After one hour the reaction mix was aspirated from the plate and the plate was washed with PBS containing 100 mM EDTA. The plate was read on a scintillation counter to determine ^33P-γ-ATP incorporated into the immobilized peptide. Test compounds were assayed in duplicate at 8 concentrations ranging from 100 μM to 10 μM in one order of magnitude steps. A maximum and minimum signal for the assay was determined on each plate. The IC50 was calculated from the dose response curve of the percent inhibition of the maximum signal in the assay according to the formula [max signal−background/test compound signal−background×(100)]=% inhibition by graphing the percent inhibition against the log concentration of test compound. Known inhibitor compounds appropriate for the kinase being assayed were also included on each plate. […]

PK A = target: T2, PK A (Bos taurus, UniProt P00517); experiment: Kinase assay (33P Flashplate), Protein Kinase A; assay type: biochemical, bovine
T2 construct: Protein Kinase A is the catalytic subunit of cAMP-dependent protein kinase-A purified from bovine heart; from tissue; host or cells: bovine heart
Description: as §4

PKC-γ = target: T3, PKC-γ (Homo sapiens, UniProt P05129); experiment: Kinase assay (33P Flashplate), PKC-γ; assay type: biochemical; conditions: mean of at least two curves
T3 construct: host or cells: insect cells
Description: as §2, §3

Casein Kinase 1 = target: T4, Casein Kinase 1 (Rattus norvegicus, UniProt Q06486); experiment: Kinase assay (33P Flashplate), Casein Kinase 1; assay type: biochemical; conditions: mean of at least two curves
T4 construct: a truncation at amino acid 318 of the C-terminal portion of the rat CK1 delta isoform; host or cells: E. coli
T4 sequence (Q06486 1-317): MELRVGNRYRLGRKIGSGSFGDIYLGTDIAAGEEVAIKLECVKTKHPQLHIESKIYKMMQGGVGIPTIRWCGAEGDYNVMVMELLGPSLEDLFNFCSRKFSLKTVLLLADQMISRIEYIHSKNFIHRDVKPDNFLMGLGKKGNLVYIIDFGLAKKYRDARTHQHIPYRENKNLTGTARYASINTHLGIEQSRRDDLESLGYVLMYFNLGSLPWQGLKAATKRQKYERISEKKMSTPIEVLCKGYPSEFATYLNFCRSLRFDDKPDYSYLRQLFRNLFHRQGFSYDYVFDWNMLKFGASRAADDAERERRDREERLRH
Description: as §2, §3

Casein Kinase 2 = target: T5, Casein Kinase 2 (Homo sapiens, UniProt P68400); experiment: Kinase assay (33P Flashplate), Casein Kinase 2; assay type: biochemical; conditions: mean of at least two curves
T5 construct: host or cells: E. coli
T5 sequence (P68400 whole entry): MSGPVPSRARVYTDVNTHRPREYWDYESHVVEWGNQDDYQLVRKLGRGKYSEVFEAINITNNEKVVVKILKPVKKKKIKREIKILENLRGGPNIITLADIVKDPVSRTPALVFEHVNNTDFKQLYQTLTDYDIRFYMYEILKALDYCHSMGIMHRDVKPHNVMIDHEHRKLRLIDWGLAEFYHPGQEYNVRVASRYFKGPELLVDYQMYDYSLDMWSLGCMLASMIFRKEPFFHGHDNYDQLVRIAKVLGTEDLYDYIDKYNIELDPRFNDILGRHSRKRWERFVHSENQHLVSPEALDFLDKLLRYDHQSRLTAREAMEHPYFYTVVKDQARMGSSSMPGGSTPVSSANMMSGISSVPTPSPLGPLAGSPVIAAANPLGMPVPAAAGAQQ
T5 sequence (P67870 whole entry partner): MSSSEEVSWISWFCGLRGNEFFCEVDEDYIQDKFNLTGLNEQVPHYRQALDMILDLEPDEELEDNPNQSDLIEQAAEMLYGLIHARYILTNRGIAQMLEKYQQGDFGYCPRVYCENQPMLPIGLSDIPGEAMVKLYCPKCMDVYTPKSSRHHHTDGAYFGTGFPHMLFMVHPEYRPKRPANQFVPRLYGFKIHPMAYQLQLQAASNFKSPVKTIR
Description: as §2, §3

Calmodulin Kinase = target: T6, Calmodulin Kinase (Rattus norvegicus, UniProt P11275); experiment: Kinase assay (33P Flashplate), Calmodulin Kinase; assay type: biochemical; conditions: mean of at least two curves
T6 construct: host or cells: insect cells
T6 sequence (P11275 1-325): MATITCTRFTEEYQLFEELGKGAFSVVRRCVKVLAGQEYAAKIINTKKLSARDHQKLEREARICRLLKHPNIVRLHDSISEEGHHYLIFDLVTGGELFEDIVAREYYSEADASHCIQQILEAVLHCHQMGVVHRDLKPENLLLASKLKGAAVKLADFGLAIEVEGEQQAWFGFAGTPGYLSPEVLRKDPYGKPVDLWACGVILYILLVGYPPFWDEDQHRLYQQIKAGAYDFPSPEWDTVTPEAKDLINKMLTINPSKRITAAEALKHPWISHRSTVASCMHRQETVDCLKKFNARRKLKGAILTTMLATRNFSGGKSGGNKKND
Description: as §2, §3

**Q.** How did the pIC50 ([1]; mean of three separate curves, read-out: IC50 for Neuroprotection [lower-upper 95% C.I.]) turn out when N#CC(=C(/N)Sc1ccccc1N)/C(C#N)=C(/N)Sc1ccccc1N [U0126, bis[amino[(2-aminophenyl)thio]methylene] Butanedinitrile] was run?
**A.** 5.96

**Q.** And the Emax ([1]; read-out: Maximal Efficacy for Neuroprotection)?
**A.** > 80%

**Q.** And the “effect on basal P19 neuron viability” value (P19 neurons)?
**A.** did not affect the basal viability

**Q.** What about the pIC50 (CDK1) of the same compound?
**A.** < 4.00

**Q.** What about the pIC50 (EGF-R) of the same compound?
**A.** < 4.00

**Q.** And the pIC50 (PK A)?
**A.** < 4.00

**Q.** What about the pIC50 (PKC-γ) of the same compound?
**A.** 4.53

**Q.** And the pIC50 (Casein Kinase 1)?
**A.** < 4.00

**Q.** And the pIC50 (Casein Kinase 2)?
**A.** < 4.00

**Q.** And the pIC50 (Calmodulin Kinase)?
**A.** < 4.00
